Measurements as given in paper PMC13266999, “Designing Antibiotics with Inherent Resistance to Efflux as a Strategy to Revive Discovery against Multidrug-Resistant Pathogens” (Journal of Medicinal Chemistry, 2026).
Read-outs that look alike come from different tables or passages of the source.

Experiments:
Neisseria gonorrhoeae = assay: MIC; format: cell-based
[1] = male, ICR, mouse, in vivo, po
E. faecalis = assay: MIC (microbroth dilution); format: cell-based, Enterococcus faecalis; conditions: for MIC: Enterococcus faecalis
Method: All bacteria were maintained on tryptic soy agar (TSA), except Streptococcus spp., which were maintained on Columbia agar plates containing 5% horse blood. […] Bacteria were grown to stationary phase in liquid culture overnight, with shaking at 200 rpm, before being back diluted to the relevant starting concentration for each assay below. MICs were measured by the microbroth dilution method. […] Absorbance at OD600 was read on a CLARIOstar spectrophotometer (BMG Labtech) and the MIC was defined as the minimum concentration of compound where no visible growth was detected. […] MICs were also performed in the presence of the outer membrane permeator, polymyxin b nonapeptide (PMBN) following the same MIC method but with the following variation. The 2-fold dilution series of compound was prepared as above, then 50 μL of PMBN at a final concentration of 30 μg/mL was added to relevant wells, while 50 μL/well of blank media was added to the remaining wells. Bacteria were then added at 50 μL/well for a starting concentration as above. […] The MICs were read and defined as above. All animal procedures were performed by the contract research organization Pharmacology Discovery Services Taiwan in accordance with the Guide for the Care and Use of Laboratory Animals. The procedures were approved by the Institutional Ethics Committee of Pharmacology Discovery Services Taiwan, Ltd. (approval no. AB127662), in compliance with animal welfare legislation in Taiwan.

S. haemolyticus = assay: MIC (microbroth dilution); format: cell-based, Staphylococcus haemolyticus; conditions: Staphylococcus haemolyticus, ATCC29970; ATCC 29970; read-out: MIC
Method: (§1) All bacteria were maintained on tryptic soy agar (TSA), except Streptococcus spp., which were maintained on Columbia agar plates containing 5% horse blood. All bacterial assays were carried out in tryptic soy broth (TSB), except for Streptococcus spp. which were grown in cation-adjusted Mueller Hinton broth containing 2.5% lysed horse blood. Bacteria were grown to stationary phase in liquid culture overnight, with shaking at 200 rpm, before being back diluted to the relevant starting concentration for each assay below. MICs were measured by the microbroth dilution method. […] Absorbance at OD600 was read on a CLARIOstar spectrophotometer (BMG Labtech) and the MIC was defined as the minimum concentration of compound where no visible growth was detected. The compounds were prepared as a DMSO stock and equivalent concentrations of DMSO had no effect on bacterial growth. MICs were also performed in the presence of the outer membrane permeator, polymyxin b nonapeptide (PMBN) following the same MIC method but with the following variation. The 2-fold dilution series of compound was prepared as above, then 50 μL of PMBN at a final concentration of 30 μg/mL was added to relevant wells, while 50 μL/well of blank media was added to the remaining wells. Bacteria were then added at 50 μL/well for a starting concentration as above. Thirty μg/mL of PMBN had no effect on bacterial growth. The MICs were read and defined as above. All animal procedures were performed by the contract research organization Pharmacology Discovery Services Taiwan in accordance with the Guide for the Care and Use of Laboratory Animals. The procedures were approved by the Institutional Ethics Committee of Pharmacology Discovery Services Taiwan, Ltd. (approval no. AB127662), in compliance with animal welfare legislation in Taiwan.

[2] = system: Staphylococcus epidermidis, S. hemolyticus and S. saprophyticus; assay: MIC, extended Gram-positive panel (grouped species); format: cell-based, Staphylococcus spp.
Method: as §1, with “Thirty μg/mL of PMBN had no effect on bacterial growth.” left out, “All animal procedures were performed by the contract research organization Pharmacology Discovery Services Taiwan in accordance with the Guide for the Care and Use of Laboratory Animals. The procedures were approved by the Institutional Ethics Committee of Pharmacology Discovery Services Taiwan, Ltd. (approval no. AB127662), in compliance with animal welfare legislation in Taiwan.” left out

[3] = reported values; cited from earlier work
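Throughout, for Response (death/test): male ICR mice given oral doses under a stepwise escalation scheme to find the highest tolerated dose.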

C[C@H]1COc2c(N3CC[C@@H](Nc4ncccn4)C3)c(F)cc3c(=O)c(C(=O)O)cn1c23 [Compound 46, (S)-9-Fluoro-3-methyl-7-oxo-10-((R)-3-(pyrimidin-2-ylamino)pyrrolidin-1-yl)-2,3-dihydro-7H-[1,4]oxazino[2,3,4-ij]quinoline-6-carboxylic acid]
4 µg/mL: MIC (Neisseria gonorrhoeae; 2007NG046)
≤ 0.03 µg/mL: MIC (Neisseria gonorrhoeae; ATCC49226, ATCC 49226) | MIC (Neisseria gonorrhoeae; ATCC700825, ATCC 700825) | MIC (Neisseria gonorrhoeae; BAA1833, BAA-1833) | MIC (Neisseria gonorrhoeae; BAA1838, BAA-1838) | MIC (Neisseria gonorrhoeae; CCUG57595, CCUG 57595) | MIC (Neisseria gonorrhoeae; CCUG57601, CCUG 57601) | MIC (Neisseria gonorrhoeae; FDA-CDC AR-BANK#0167) | MIC (Neisseria gonorrhoeae; FDA-CDC AR-BANK#0175) | MIC (Neisseria gonorrhoeae; FDA-CDC AR-BANK#0177) | MIC (Neisseria gonorrhoeae; FDA-CDC AR-BANK#0179) | MIC (Neisseria gonorrhoeae; FDA-CDC AR-BANK#0181) | MIC (Neisseria gonorrhoeae; FDA-CDC AR-BANK#0193) | MIC (Neisseria gonorrhoeae; FDA-CDC AR-BANK#0194) | MIC (Neisseria gonorrhoeae; FDA-CDC AR-BANK#0199) | MIC (Neisseria gonorrhoeae; FDA-CDC AR-BANK#0202)
≤ 0.125 µg/mL: MIC (Neisseria gonorrhoeae; NCTC13477, NCTC 13477)
0.06 µg/mL: MIC (Neisseria gonorrhoeae; CCUG57602, CCUG 57602)
2 µg/mL: MIC (Neisseria gonorrhoeae; 2008NG057) | MIC (Neisseria gonorrhoeae; 2008NG097) | MIC (Neisseria gonorrhoeae; 2009NG514) | MIC (Neisseria gonorrhoeae; 2010NG122) | MIC (Neisseria gonorrhoeae; CCUG57597, CCUG 57597) | MIC (Neisseria gonorrhoeae; CCUG57598, CCUG 57598) | MIC (Neisseria gonorrhoeae; FDA-CDC AR-BANK#0165) | MIC (Neisseria gonorrhoeae; FDA-CDC AR-BANK#0166) | MIC (Neisseria gonorrhoeae; FDA-CDC AR-BANK#0169) | MIC (Neisseria gonorrhoeae; FDA-CDC AR-BANK#0170) | MIC (Neisseria gonorrhoeae; FDA-CDC AR-BANK#0173) | MIC (Neisseria gonorrhoeae; FDA-CDC AR-BANK#0174) | MIC (Neisseria gonorrhoeae; FDA-CDC AR-BANK#0176) | MIC (Neisseria gonorrhoeae; FDA-CDC AR-BANK#0178) | MIC (Neisseria gonorrhoeae; FDA-CDC AR-BANK#0180) | MIC (Neisseria gonorrhoeae; FDA-CDC AR-BANK#0182) | MIC (Neisseria gonorrhoeae; FDA-CDC AR-BANK#0183) | MIC (Neisseria gonorrhoeae; FDA-CDC AR-BANK#0184) | MIC (Neisseria gonorrhoeae; FDA-CDC AR-BANK#0185) | MIC (Neisseria gonorrhoeae; FDA-CDC AR-BANK#0187) | MIC (Neisseria gonorrhoeae; FDA-CDC AR-BANK#0189) | MIC (Neisseria gonorrhoeae; FDA-CDC AR-BANK#0190) | MIC (Neisseria gonorrhoeae; FDA-CDC AR-BANK#0191) | MIC (Neisseria gonorrhoeae; FDA-CDC AR-BANK#0192) | MIC (Neisseria gonorrhoeae; FDA-CDC AR-BANK#0195) | MIC (Neisseria gonorrhoeae; FDA-CDC AR-BANK#0196) | MIC (Neisseria gonorrhoeae; FDA-CDC AR-BANK#0197) | MIC (Neisseria gonorrhoeae; FDA-CDC AR-BANK#0198) | MIC (Neisseria gonorrhoeae; FDA-CDC AR-BANK#0200) | MIC (Neisseria gonorrhoeae; FDA-CDC AR-BANK#0201) | MIC (Neisseria gonorrhoeae; FDA-CDC AR-BANK#0203) | MIC (Neisseria gonorrhoeae; FDA-CDC AR-BANK#0204) | MIC (Neisseria gonorrhoeae; FDA-CDC AR-BANK#0205) | MIC (Neisseria gonorrhoeae; FDA-CDC AR-BANK#0206) | MIC (Neisseria gonorrhoeae; FDA-CDC AR-BANK#0207) | MIC (Neisseria gonorrhoeae; FDA-CDC AR-BANK#0208) | MIC (Neisseria gonorrhoeae; FDA-CDC AR-BANK#0209) | MIC (Neisseria gonorrhoeae; FDA-CDC AR-BANK#0210) | MIC (Neisseria gonorrhoeae; FDA-CDC AR-BANK#0211) | MIC (Neisseria gonorrhoeae; FDA-CDC AR-BANK#0212) | MIC (Neisseria gonorrhoeae; FDA-CDC AR-BANK#0214) | MIC (Neisseria gonorrhoeae; NCTC13818, NCTC 13818) | MIC (Neisseria gonorrhoeae; NCTC13819, NCTC 13819) | MIC (Neisseria gonorrhoeae; NCTC13820, NCTC 13820) | MIC (Neisseria gonorrhoeae; NCTC13821, NCTC 13821) | MIC (Neisseria gonorrhoeae; NCTC13822, NCTC 13822) | MIC (Neisseria gonorrhoeae; TCDC-NG08107) | MIC90 (Neisseria gonorrhoeae; panel of 75 clinical isolates)
0.5 µg/mL: MIC (Neisseria gonorrhoeae; CCUG57599, CCUG 57599) | MIC (Neisseria gonorrhoeae; NCTC13817, NCTC 13817)
1 µg/mL: MIC (Neisseria gonorrhoeae; CCUG57600, CCUG 57600) | MIC (Neisseria gonorrhoeae; FDA-CDC AR-BANK#0168) | MIC (Neisseria gonorrhoeae; FDA-CDC AR-BANK#0171) | MIC (Neisseria gonorrhoeae; FDA-CDC AR-BANK#0172) | MIC (Neisseria gonorrhoeae; FDA-CDC AR-BANK#0186) | MIC (Neisseria gonorrhoeae; FDA-CDC AR-BANK#0188) | MIC (Neisseria gonorrhoeae; FDA-CDC AR-BANK#0213)
0.125 µg/mL: MIC (Neisseria gonorrhoeae; CCUG57596, CCUG 57596)
0.03 to 0.5 µg/mL: MIC (Neisseria gonorrhoeae; several isolates of the panel)
0/3: Response (death/test) ([1]; 100 mg/kg) | Response (death/test) ([1]; 100 mg/kg, 24 h) | Response (death/test) ([1]; 100 mg/kg, 48 h) | Response (death/test) ([1]; 100 mg/kg, 72 h) | Response (death/test) ([1]; 200 mg/kg) | Response (death/test) ([1]; 400 mg/kg)

Cc1cc(C)nc(N[C@@H]2CCN(c3c(F)cc4c(=O)c(C(=O)O)cn5c4c3OC[C@@H]5C)C2)n1 [Compound 50, (S)-10-((R)-3-((4,6-Dimethylpyrimidin-2-yl)amino)pyrrolidin-1-yl)-9-fluoro-3-methyl-7-oxo-2,3-dihydro-7H-[1,4]oxazino[2,3,4-ij]quinoline-6-carboxylic acid]
0.125 to 0.5 µg/mL: MIC range (E. faecalis; clinical isolates, Table S11B)
0.125 µg/mL: MIC (E. faecalis; ATCC51299) | MIC (E. faecalis; ATCC700802)
0.03125 to 0.06 µg/mL: MIC range [2]
0.5 µg/mL: MIC (E. faecalis; CCUG47775, VanA (CCUG 47775), read-out: MIC)
0.03 µg/mL: MIC (S. haemolyticus)
0.25 µg/mL: MIC (E. faecalis; ATCC29212, ATCC 29212, read-out: MIC) | MIC (E. faecalis; ATCC51575, VanB (ATCC 51575), read-out: MIC)

C[C@H]1COc2c(N3CCN(C)CC3)c(F)cc3c(=O)c(C(=O)O)cn1c23 [Levofloxacin, (S)-9-Fluoro-3-methyl-10-(4-methylpiperazin-1-yl)-7-oxo-2,3-dihydro-7H-[1,4]oxazino[2,3,4-ij]quinoline-6-carboxylic acid, reference compound]
38%: plasma protein binding [3]
